Measurements taken from patent EP0633893B1, “17-SUBSTITUTED STEROIDS USEFUL IN CANCER TREATMENT” (priority 1992, dated 1993).
Like-named read-outs stand apart in the source and are kept apart here. One block for each compound: values may come before it.

What was measured:
C17-C20 lyase = target: T1, C17-C20 lyase (Homo sapiens, UniProt P05093); assay: Determination of C17-C20 lyase (human testicular microsomes, 3H-17α-hydroxyprogesterone substrate, HPLC); assay type: biochemical
T1 construct: The microsomal pellet was then resuspended in 50mM sodium phosphate pH 7.4/glycerol (3/1 v/v) and stored in aliquots in liquid nitrogen; from tissue; host or cells: human testis microsomes
T1 sequence (P05093 1-508): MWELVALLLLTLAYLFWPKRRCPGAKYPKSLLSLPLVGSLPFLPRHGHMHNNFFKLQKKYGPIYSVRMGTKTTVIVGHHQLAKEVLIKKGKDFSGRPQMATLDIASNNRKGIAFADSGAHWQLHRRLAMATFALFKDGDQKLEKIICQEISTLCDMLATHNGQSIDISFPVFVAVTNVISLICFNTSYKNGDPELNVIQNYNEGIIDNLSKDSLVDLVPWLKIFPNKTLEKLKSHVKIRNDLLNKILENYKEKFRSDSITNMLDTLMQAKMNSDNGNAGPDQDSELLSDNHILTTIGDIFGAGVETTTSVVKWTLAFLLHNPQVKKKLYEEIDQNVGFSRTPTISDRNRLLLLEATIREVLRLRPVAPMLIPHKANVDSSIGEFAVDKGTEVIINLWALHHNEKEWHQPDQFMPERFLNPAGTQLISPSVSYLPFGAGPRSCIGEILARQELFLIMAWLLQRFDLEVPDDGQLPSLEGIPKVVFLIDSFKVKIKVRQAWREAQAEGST

17α-hydroxylase = target: T2, 17α-hydroxylase (Homo sapiens, UniProt P05093); assay: Determination of 17α-hydroxylase (human testicular microsomes, 3H-progesterone substrate, HPLC); assay type: biochemical
T2 construct: The microsomal pellet was then resuspended in 50mM sodium phosphate pH 7.4/glycerol (3/1 v/v) and stored in aliquots in liquid nitrogen; from tissue; host or cells: human testis microsomes
T2 sequence (P05093 1-508): T1 sequence (P05093 1-508)

Male HWT mice [1] = assay type: in vivo; conditions: daily for 2 weeks, mean ± standard error
Protocol: (§1) Male HWT mice, 12 weeks old, were treated daily for 2 weeks, with 5 animals per treatment group. The test compounds were the compound of Examples 1 and 4 (as representative of compounds of the invention having the pregenolone-like and progesterone-like skeletons respectively). Ketoconazole was also tested at three different doses. The test compounds were made up in 5% benzyl alcohol, 95% safflower oil, and were given i.p.. In addition to an untreated control group of animals, there was also a solvent control group which received the same volume of liquid as the test group (5ml/kg) but no test compound. All animals were sacrificed 24 hours after the last injection. Blood was collected by cardiac puncture into heparinized tubes, and the plasma used for RIA (radio immunoassay) of testosterone and luteinising hormone. The following organs were removed and weighed: adrenals, prostate, seminal vesicles, testes, kidneys. There was no significant body weight loss in any group of mice during the experiments.

Male HWT mice [2] = conditions: mouse, in vivo; for Post mortem examination: appearance of organs / Post mortem examination: deposits: ip
Protocol: as §1
In Ketoconazole-treated animals, adhesions were found in 2/5,2/5,4/5 of the low/middle/top dose groups. […] The livers were brown in the middle/top dose groups.

luteinising hormone = assay: In vivo endocrine test in mice: RIA of plasma luteinising hormone; conditions: 2 weeks, plasma 24 hours after last injection, mean ± standard error
Protocol: as §1

testosterone = assay: In vivo endocrine test in mice: RIA of plasma testosterone; conditions: 2 weeks, plasma 24 hours after last injection, mean ± standard error
aromatase = target: T3, aromatase (Homo sapiens, UniProt P11511); assay: biochemical
T3 sequence (P11511 1-503): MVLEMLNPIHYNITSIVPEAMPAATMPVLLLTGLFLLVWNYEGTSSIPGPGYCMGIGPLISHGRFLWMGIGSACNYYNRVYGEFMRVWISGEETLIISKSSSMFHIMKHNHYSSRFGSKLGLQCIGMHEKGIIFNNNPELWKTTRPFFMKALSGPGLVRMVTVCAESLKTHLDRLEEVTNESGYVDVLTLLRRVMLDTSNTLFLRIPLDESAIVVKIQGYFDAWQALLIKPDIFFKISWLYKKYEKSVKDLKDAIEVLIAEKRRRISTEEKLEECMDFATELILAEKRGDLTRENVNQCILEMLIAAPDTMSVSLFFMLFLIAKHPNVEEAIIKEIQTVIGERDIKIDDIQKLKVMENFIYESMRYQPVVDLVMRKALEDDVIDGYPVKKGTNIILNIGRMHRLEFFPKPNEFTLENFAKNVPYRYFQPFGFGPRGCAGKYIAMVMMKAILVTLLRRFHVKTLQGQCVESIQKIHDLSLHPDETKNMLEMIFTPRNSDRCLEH

[3] = approx. 4nM enzyme, read-out: IC50 (µM) Lyase
[4] = approx. 4nM enzyme, read-out: IC50 (µM) Hydroxylase
[5] = 25nM lyase, read-out: IC50 (µM) Lyase
[6] = 10nM hydroxylase, read-out: IC50 (µM) Hydroylase

SMILES: C[C@]12CC[C@H](O)CC1=CC[C@@H]1[C@@H]2CC[C@]2(C)C(c3cccnc3)=CC[C@@H]12 [Ex. 2, 17-(3-Pyridyl)androsta-5,16-dien-3β-ol]
IC50 (C17-C20 lyase; [3]): 0.0029 µM
IC50 (17α-hydroxylase; [4]): 0.004 µM

SMILES: CC(=O)O[C@H]1CC[C@@]2(C)C(=CC[C@@H]3[C@@H]2CC[C@]2(C)C(c4cccnc4)=CC[C@@H]32)C1 [Ex. 1, 3β-Acetoxy-17-(3-pyridyl)androsta-5,16-diene]
Mean weight Kidneys (Male HWT mice [1]; 0.02 mmol/kg/day i.p.): 604 ± 24 mg
Mean weight Prostate (Male HWT mice [1]; 0.02 mmol/kg/day i.p.): 8.0 ± 0.6 mg
Mean weight Seminal Vesicles (Male HWT mice [1]; 0.02 mmol/kg/day i.p.): 136 ± 4 mg
Mean weight Testes (Male HWT mice [1]; 0.02 mmol/kg/day i.p.): 134 ± 4 mg
Mean weight Kidneys (Male HWT mice [1]; 0.1 mmol/kg/day i.p.): 500 ± 8 mg
Mean weight Prostate (Male HWT mice [1]; 0.1 mmol/kg/day i.p.): 5.3 ± 0.3 mg
Mean weight Seminal Vesicles (Male HWT mice [1]; 0.1 mmol/kg/day i.p.): 51 ± 6 mg
Mean weight Testes (Male HWT mice [1]; 0.1 mmol/kg/day i.p.): 95 ± 3 mg
Mean weight Kidneys (Male HWT mice [1]; 0.5 mmol/kg/day i.p.): 449 ± 12 mg
Mean weight Prostate (Male HWT mice [1]; 0.5 mmol/kg/day i.p.): 5.6 ± 0.6 mg
Mean weight Seminal Vesicles (Male HWT mice [1]; 0.5 mmol/kg/day i.p.): 25 ± 2 mg
Mean weight Testes (Male HWT mice [1]; 0.5 mmol/kg/day i.p.): 56 ± 2 mg
Post mortem examination: appearance of organs (Male HWT mice [2]): all organs looked normal
Post mortem examination: deposits (Male HWT mice [2]): oil/white deposits i.p.
LH (luteinising hormone; 0.02Mmol/Kg/Day i.p.): 3.4 ± 0.5 ng/mL
LH (luteinising hormone; 0.1Mmol/Kg/Day i.p.): 2.55 ± 0.45 ng/mL
LH (luteinising hormone; 0.5Mmol/Kg/Day i.p.): 2.25 ± 0.67 ng/mL
Testosterone (testosterone; 0.02Mmol/Kg/Day i.p.): 2.7 ± 0.5 nM
Testosterone (testosterone; 0.5Mmol/Kg/Day i.p.): 0.1 ± 0.0 nM
Testosterone (testosterone; i.p.): 0.2 ± 0.1 nM
IC50 (aromatase): > 20000 nM

SMILES: C[C@]12CC[C@H](O)CC1=CC[C@@H]1[C@@H]2CC[C@]2(C)C(c3ccncc3)=CC[C@@H]12 [Example 4-pyridyl, reference compound]
IC50 (C17-C20 lyase; [5]): 2 µM
IC50 (17α-hydroxylase; [6]): 5 µM

SMILES: C[C@]12CC[C@@H](O)C[C@@H]1CC[C@@H]1[C@@H]2CC[C@]2(C)C(c3cccnc3)=CC[C@@H]12 [Ex. 8, 17-(3-Pyridyl)-5α-androst-16-en-3α-ol]
IC50 (C17-C20 lyase): 0.0025 µM
IC50 (17α-hydroxylase): 0.0043 µM

SMILES: C[C@]12CC[C@H](O)CC1=CC[C@@H]1[C@@H]2CC[C@]2(C)C(Cc3ccccn3)=CC[C@@H]12 [Example 2-picolyl, reference compound]
IC50 (C17-C20 lyase; [5]): > 10 µM
IC50 (17α-hydroxylase; [6]): > 10 µM

IC50 (C17-C20 lyase; [3]): 0.0056 µM
IC50 (17α-hydroxylase; [4]): 0.0125 µM
SMILES: C[C@]12CCC=CC1=CC[C@@H]1[C@@H]2CC[C@]2(C)C(c3cccnc3)=CC[C@@H]12 [Ex. 3, 17-(3-Pyridyl)androsta-3,5,16-triene]

SMILES: C[C@]12CCC(=O)C[C@@H]1CC[C@@H]1[C@@H]2CC[C@]2(C)C(c3cccnc3)=CC[C@@H]12 [Ex. 9, 17-(3-Pyridyl)-5α-androst-16-en-3-one]
IC50 (C17-C20 lyase): 0.003 µM

SMILES: CC(=O)N1CCN(c2ccc(OCC3COC(Cn4ccnc4)(c4ccc(Cl)cc4Cl)O3)cc2)CC1 (stereo not drawn) [Ketoconazole, reference compound]
Mean weight Kidneys (Male HWT mice [1]; 0.01mmol/kg/day i.p.): 637 ± 22 mg
Mean weight Prostate (Male HWT mice [1]; 0.01mmol/kg/day i.p.): 9.1 ± 0.8 mg
Mean weight Seminal Vesicles (Male HWT mice [1]; 0.01mmol/kg/day i.p.): 235 ± 18 mg
Mean weight Testes (Male HWT mice [1]; 0.01mmol/kg/day i.p.): 141 ± 5 mg
Mean weight Kidneys (Male HWT mice [1]; 0.225 mmol/kg/day i.p.): 574 ± 23 mg
Mean weight Prostate (Male HWT mice [1]; 0.225 mmol/kg/day i.p.): 10.8 ± 1.4 mg
Mean weight Seminal Vesicles (Male HWT mice [1]; 0.225 mmol/kg/day i.p.): 171 ± 5 mg
Mean weight Testes (Male HWT mice [1]; 0.225 mmol/kg/day i.p.): 127 ± 7 mg
Mean weight Kidneys (Male HWT mice [1]; 0.5 mmol/kg/day i.p.): 710 ± 30 mg
Mean weight Prostate (Male HWT mice [1]; 0.5 mmol/kg/day i.p.): 9.3 ± 0.9 mg
Mean weight Seminal Vesicles (Male HWT mice [1]; 0.5 mmol/kg/day i.p.): 179 ± 20 mg
Mean weight Testes (Male HWT mice [1]; 0.5 mmol/kg/day i.p.): 133 ± 6 mg
Post mortem examination: livers (Male HWT mice [2]): brown
LH (luteinising hormone; 0.1Mmol/Kg/Day i.p.): 0.39 ± 0.14 ng/mL
LH (luteinising hormone; 0.225Mmol/Kg/Day i.p.): 0.75 ± 0.02 ng/mL
LH (luteinising hormone; 0.5Mmol/Kg/Day i.p.): 0.76 ± 0.03 ng/mL

SMILES: C[C@]12CCC(=O)C=C1[C@@H](F)C[C@@H]1[C@@H]2CC[C@]2(C)C(c3cccnc3)=CC[C@@H]12 [Ex. 13, 6α-Fluoro-17-(3-pyridyl)androsta-4,16-dien-3-one]
IC50 (C17-C20 lyase; [3]): 0.0032 µM
IC50 (17α-hydroxylase; [4]): 0.0053 µM

SMILES: C[C@]12CCC(=O)C=C1[C@H](F)C[C@@H]1[C@@H]2CC[C@]2(C)C(c3cccnc3)=CC[C@@H]12 [Ex. 12, 6β-Fluoro-17-(3-pyridyl)androsta-4,16-dien-3-one]
IC50 (C17-C20 lyase; [3]): 0.0022 µM
IC50 (17α-hydroxylase; [4]): 0.0033 µM

SMILES: C[C@]12CC[C@H](O)CC1=CC[C@@H]1[C@@H]2CC[C@]2(C)C(c3ccccn3)=CC[C@@H]12 [Example 2-Pyridyl, reference compound]
IC50 (C17-C20 lyase): 0.13 µM
IC50 (17α-hydroxylase): 0.32 µM

SMILES: C[C@]12CCC(=O)C=C1CC[C@@H]1[C@@H]2CC[C@]2(C)C(c3cccnc3)=CC[C@@H]12 [Ex. 4, 17-(3-Pyridyl)androsta-4,16-dien-3-one]
IC50 (C17-C20 lyase; [3]): 0.0021 µM
Mean weight Kidneys (Male HWT mice [1]; 0.02 mmol/kg/day i.p.): 599 ± 29 mg
Mean weight Prostate (Male HWT mice [1]; 0.02 mmol/kg/day i.p.): 5.9 ± 0.8 mg
Mean weight Seminal Vesicles (Male HWT mice [1]; 0.02 mmol/kg/day i.p.): 108 ± 4 mg
Mean weight Testes (Male HWT mice [1]; 0.02 mmol/kg/day i.p.): 117 ± 9 mg
Mean weight Kidneys (Male HWT mice [1]; 0.1 mmol/kg/day i.p.): 549 ± 28 mg
Mean weight Prostate (Male HWT mice [1]; 0.1 mmol/kg/day i.p.): 6.4 ± 0.5 mg
Mean weight Seminal Vesicles (Male HWT mice [1]; 0.1 mmol/kg/day i.p.): 61 ± 9 mg
Mean weight Testes (Male HWT mice [1]; 0.1 mmol/kg/day i.p.): 105 ± 5 mg
Mean weight Kidneys (Male HWT mice [1]; 0.5 mmol/kg/day i.p.): 468 ± 15 mg
Mean weight Prostate (Male HWT mice [1]; 0.5 mmol/kg/day i.p.): 4.1 ± 0.5 mg
Mean weight Seminal Vesicles (Male HWT mice [1]; 0.5 mmol/kg/day i.p.): 25 ± 1 mg
Mean weight Testes (Male HWT mice [1]; 0.5 mmol/kg/day i.p.): 59 ± 2 mg
IC50 (17α-hydroxylase; [4]): 0.0028 µM
Post mortem examination: appearance of organs (Male HWT mice [2]): all organs looked normal
Post mortem examination: deposits (Male HWT mice [2]): white deposits throughout the abdomen
Testosterone (testosterone; 0.02Mmol/Kg/Day i.p.): 4.5 ± 0.3 nM
Testosterone (testosterone; 0.5Mmol/Kg/Day i.p.): 0.4 ± 0.1 nM
Testosterone (testosterone; i.p.): 3.5 ± 1.0 nM
IC50 (aromatase): 1000 nM

SMILES: C[C@]12CCC(=O)C=C1CC[C@@H]1[C@@H]2C(=O)C[C@]2(C)C(c3cccnc3)=CC[C@@H]12 [Ex. 10, 17-(3-Pyridyl)androsta-4,16-diene-3,11-dione]
IC50 (C17-C20 lyase; [3]): 0.0025 µM
IC50 (17α-hydroxylase; [4]): 0.0091 µM

SMILES: C[C@]12CC[C@@H]3c4ccc(O)cc4CC[C@H]3[C@@H]1CC=C2c1cccnc1 [Ex. 6, 17-(3-Pyridyl)estra-1,3,5[10],16-tetraen-3-ol]
IC50 (C17-C20 lyase; [3]): 0.0018 µM
IC50 (17α-hydroxylase; [4]): 0.0026 µM
